# From patent publication US7045550B2, “Polyamines and analogs for protecting cells during cancer chemotherapy and radiotherapy” (Wisconsin Alumni Research Foundation, priority 2001, dated 2006)
# Columns and labels:
# [1] = test system: rat pups challenged with cytoxan; assay: Cytoxan (CTX)-induced alopecia model in rat pups, topical polyamine effector; format: in vivo, Sprague Dawley rat; conditions: for efficacy in the rat alopecia and/or dermatitis model: Examples 6, 7 and 8
# Procedure: (§1) Induction of alopecia by cytoxan (CTX). Lactating Sprague Dawley mother rats with rat pups were purchased from Harlan Sprague Dawley (Indianapolis, Ind.). The mother rats were given food and water ad libitum. The rats pups were tested in the model of chemotherapy-induced alopecia described by Hussein A. M. et al., Science: 249, 1564 (1990). Cytoxan (CTX), a chemotherapeutic widely used in the treatment of cancer, was used to induce alopecia in the rats. A common side effect of cytoxan in patients is alopecia. Cytoxan and polyamine effector compounds were purchased from Sigma Chemicals Co. (St. Louis, Mo.). To produce CTX-induced alopecia, 7 to 10 day old rat pups were injected i.p. with 35 mg/kg of CTX prepared in phosphate-buffered saline. To produce reproducible CTX induced alopecia, we first tested several concentrations (35, 40, 45 ug/gm body weight) of CTX in phosphate-buffered saline (PBS), which was injected i.p. in 7–10 day old pups. Seven to ten days after CTX treatment the pups were examined to determine the degree of hair loss. The density of hair on the pups was then determined. 100% hair density represents that found on the untreated control pups while 0% represented pups with total hair loss. It was observed that 35 ug/gm of CTX was sufficient to induce 100% hair loss approximately 7 days after cytoxan challenge, and this concentration was used in subsequent experiments.
# Different types of polyamine effector agents were tested in this model. The effectors were prepared in a delivery vehicle, consisting of from 60–100% ethanol in water, depending on the solubility of the compound. The compounds in ethanol/water solution from 50–150 μl in volume were topically administered to the backs of the pups once per day before and after CTX challenge. Using a micropipette, the formulation was applied to approximately 2 cm^2 section of skin to the backs of the rat pups. Specifically, the pups were treated once daily for the 4–5 days before CTX challenge, once on the day of CTX challenge and once daily for 5 days afterwards. Control groups consisted of pups receiving only delivery vehicle. Control groups treated with delivery vehicle were tested as part of every treatment study. Two or more animals were tested per group in both the control and test groups.
# Approximately 7 to 10 days after CTX treatment, the pups were evaluated for alopecia. Hair loss was evaluated using a modified alopecia-scoring index described by Chen G. et al., Int. J. Cancer: 75, 303 (1998). A score of 0=no hair loss; a score of 1=10–30% hair loss; a score of 2=40–60% hair loss; a score of 3=70–90% hair loss; and a score of 4=100% hair loss.
# as §1, with “It was observed that 35 ug/gm of CTX was sufficient to induce 100% hair loss approximately 7 days after cytoxan challenge, and this concentration was used in subsequent experiments.” left out
# [2] = test system: rats exposed to radiation; assay: Radiation-induced dermatitis model in rats (15 Gy), topical polyamine effector; format: in vivo, Sprague Dawley rat; conditions: for Avg dermatitis score: 15 Gy, vehicle 3.0
# Procedure: To determine if treatment with a polyamine effector could effectively prevent radiation-induced dermatitis, adult rats were topically treated with several different classes of polyamine effectors before and after radiation treatment. Rats were exposed to medically relevant levels of radiation that could induce clinical radiation dermatitis. Sprague Dawley rats (Harlen Spraque Dawley) at 4–6 weeks-old were anesthetized with sodium pentobarbital at 40 mg/kg body weight (Sigma, St. Louis, Mo.) prior to radiation exposure. A defined, depilated area on the backs of rats was irradiated using a Mark I, Model 30, Cs 137 irradiator (J. L. Sheppard & Associates). Briefly, the back was stripped of hair to expose the skin using a 1:1 rosin/beeswax mixture. The rest of the body was protected from radiation exposure using a lead shield. A dose response study was initially preformed to reproduce relevant dermatitis that matched the Grade (I–IV) scale used to score the severity of radiation-induced dermatitis in the clinical setting. Radiation doses of 5–7 Gray (1 Gray (Gy)=[…]) produced Grade I dermatitis within 8–10 days. Radiation doses of 7–10 Gy produced Grade II dermatitis within 8–10 days. After 8–10 days, severe radiation dermatitis was produced at 20–25 Gy (Grade III dermatitis) or at 30–35 Gy (Grade IV). Radiation dermatitis of Grade II–III was considered most clinically relevant, so a radiation challenge dose of 15 Gy in the rats was used in subsequent treatment experiments. The stripped back region on the rats was treated topically with 10–50 mM polyamine effector once daily for 5 days before and 5 days after radiation challenge.
# Different classes (natural polyamines and biosynthetic inhibitors) of polyamine effector agents were tested in this model. The polyamine effector compounds were purchased from Sigma Chemicals Co. (St. Louis, Mo.), except Vaniqa, a commercially available cream containing DFMO at 13.9% ([…]). The effectors were prepared in a delivery vehicle, consisting of from 60–100% ethanol in water, depending on the solubility of the compound. The compounds in ethanol/water solution from 100–150 μl in volume were topically administered to the stripped region. Rats treated with only the delivery vehicle served as controls. Eight to ten days post-radiation challenge, the rats were evaluated for dermatitis using a modified scoring scale described by Masuda K. et al. Int. J. Radiation Oncol. Biol. Phys: 12, 1645 (1986). Dermatitis score of 0=normal, 1=slight redness, scaly skin with no focal lesions, 2=moderate redness, breakdown of larger area, some small focal lesions, 3=skin very red, breakdown of most of the irradiated area, large ulcers and crusty lesions, 4=skin very red, breakdown of the entire irradiated area, severe exudation and large crusty lesions.
# To determine if treatment with a non-natural polyamine analog could effectively prevent radiation-induced dermatitis, adult rats were topically treated with a polyamine analog before and after radiation treatment. Rats were exposed to medically relevant levels of radiation that could induce clinical radiation dermatitis. Sprague Dawley rats (Harlan Spraque Dawley) at 4–6 weeks old were anesthetized with sodium pentobarbital at 40 mg/kg body weight (Sigma, St. Louis, Mo.) prior to radiation exposure. A defined, depilated area on the backs of rats was irradiated using a Mark I, Model 30, Cs 137 irradiator (J. L. Sheppard & Associates). Briefly, back hair was removed to expose the skin by using Oster electric clippers followed by a safety razor. The rest of the body was protected from radiation exposure using a lead shield. A dose response study was initially preformed to reproduce relevant dermatitis that matched the Grade (I–IV) scale used to score the severity of radiation-induced dermatitis in the clinical setting. Radiation doses of 5–7 Gray (1 Gray (Gy)=[…]) produced Grade I dermatitis within 8–10 days. […]
# DNA = conditions: in vitro; Basu et al. 1993; cited from earlier work
# [3] = test system: rat pups challenged with cytarbine; assay: Cytarbine-induced alopecia model in rat pups; format: in vivo; conditions: treatment (1 mM), vehicle 4.0
# Source text: (§2) Alopecia was induced in rat pups by Cytoxan, cytarbine, doxorubicin and radiation, according to the methods described in the previous examples. Polyamines from three different structural families, obtained from two different sources, gave excellent results in animal alopecia models for Cytoxan, cytarbine and doxorubicin.
# [4] = test system: rat pups challenged with doxorubicin; assay: Doxorubicin-induced alopecia model in rat pups; format: in vivo; conditions: vehicle 4.0
# Source text: as §2
# [5] = 1 mM topical (Example 1), scale 0-4, vehicle 4.0
# [6] = 5 mM topical (Example 1), scale 0-4, vehicle 4.0
# [7] = 10 mM topical, scale 0-4, vehicle 4.0
# [8] = 20 mM topical, scale 0-4, vehicle 4.0
# [9] = 10 mM in ethanol/water, scale 0-4
# [10] = Example 1, concentrations tested
# [11] = 50 mM topical, scale 0-4, vehicle 4.0
# [12] = 50 mM in ethanol/water, scale 0-4
# [13] = Example 6, 5 mM in 70% ethanol, topical, scale 0-4, vehicle 4.0
structure (smiles),measurement,setting,value
"Cl.NCCC[C@](N)(C(=O)O)C(F)F (racemic) [DFMO, DL-Alpha Difluoromethylornithine HCl, reference compound]",Avg Alopecia Score,[1]; [5],4.0
same,Avg Alopecia Score,[1]; [6],2.0
same,Avg Alopecia Score,[1]; [7],2.0
same,Avg Alopecia Score,[1]; [8],3.5
same,effect on CTX-induced alopecia,"[1]; Example 1, 5–10 mM",effectively prevented alopecia
same,Avg dermatitis score,[2]; [9],2.5
N=C(N)NCCCCN [Agmatine],Avg Alopecia Score,[1]; [5],3.0
same,Avg Alopecia Score,[1]; [7],3.0
same,effect on CTX-induced alopecia,[1]; [10],"reduced, but did not prevent alopecia"
same,Avg dermatitis score,[2]; [9],1.8
same,Avg dermatitis score,"[2]; 20 mM in ethanol/water, scale 0 (normal) to 4",2.0
"C[C@](N)(CCCN)C(=O)O [Alpha-Methyl ornithine, reference compound]",Avg Alopecia Score,[1]; [6],4.0
same,Avg Alopecia Score,[1]; [8],4.0
same,effect on CTX-induced alopecia,[1]; [10],did not prevent hair loss
"CCNCCCNCCCNCCCNCC [BE-3-3-3, N1, N11-bis (ethyl) norspermine]",Avg Alopecia Score,[1]; [5],2.7
same,Avg Alopecia Score,[1]; [6],2.3
same,Avg Alopecia Score,[1]; [8],1.7
same,Alopecia Score +/- SEM,"[1]; Expt. 1, 1 mM, vehicle 4.0 +/- 0.0",3.5 +/− 0.7
same,Alopecia Score +/- SEM,"[1]; Expt. 1, 10 mM, vehicle 4.0 +/- 0.0",1.5 +/− 0.7
same,Alopecia Score +/- SEM,"[1]; Expt. 2, 1 mM, vehicle 3.5 +/- 0.7",2.5 +/− 0.3
same,Alopecia Score +/- SEM,"[1]; Expt. 2, 10 mM, vehicle 3.5 +/- 0.7",0.25 +/− 0.3
same,Alopecia Score +/- SEM,"[1]; Expt. 3, 1 mM, vehicle 4.0 +/- 0.0",2.7 +/− 0.4
same,Alopecia Score +/- SEM,"[1]; Expt. 3, 10 mM, vehicle 4.0 +/- 0.0",2.0 +/− 0.3
same,Avg Alopecia Score,"[1]; Table 15, several data sets at multiple concentrations",0.3–1.5
"CCNCCCCNCCCCNCCCCNCC [BE-4-4-4, 1N,14N-Bisethylhomospermine]",DNA binding and aggregation,DNA,binds to DNA in vitro but does not aggregate it
"CCNCCCCNCCCCNCCCCNCCCCNCC [BE-4-4-4-4, 3,8,13,18,23-Pentaazapentacosane]",DNA binding and aggregation,DNA,both binds DNA and aggregates it
NCCCCCN [Cadaverine],Avg Alopecia Score,[1]; [6],4.0
same,Avg Alopecia Score,[1]; [11],2.5
"NC(=NCCC[C@H](N)C(=O)O)NO [NOHA, NG-hydroxy-arginine]",Avg Alopecia Score,[1]; [6],2.75
NCCCNCCCN [Norspermidine],Avg Alopecia Score,[1]; [6],4.0
same,Avg Alopecia Score,[1]; [11],2.0
NCCCCN [Putrescine],Avg Alopecia Score,"[1]; 2 mM topical, scale 0-4, vehicle 4.0",3.0
same,Avg Alopecia Score,[1]; [6],2.5
same,Avg Alopecia Score,[1]; [7],2.0
same,Avg Alopecia Score,[1]; [11],1.5
same,Avg dermatitis score,[2]; [12],3.0
CCNCCCNCC1CC1CNCCCNCC (stereo not drawn) [SL-11038],efficacy in the rat alopecia and/or dermatitis model,[1]; 5 mM,showed efficacy
same,Avg Alopecia Score,[1]; [13],3.5
CCNCCCNCC1CCC1CNCCCNCC (stereo not drawn) [SL-11044],Avg Alopecia Score,[1]; [13],2.5
CCNCCCNCC#CCNCCCNCC [SL-11091],Avg Alopecia Score,[1]; [13],3.0
CNCCCNCC#CCNCCCNC [SL-11092],efficacy in the rat alopecia and/or dermatitis model,[1]; 5 mM,showed efficacy
same,Avg Alopecia Score,"[1]; Table 10, treatment (1 mM), vehicle 4.0",0.0
same,Avg Alopecia Score,"[1]; Table 15, cytoxan-induced, re-screening summary",0.0
CCNCCCCNCC#CCNCCCCNCC [SL-11103],efficacy in the rat alopecia and/or dermatitis model,[1]; 5 mM,showed efficacy
CCNCCCCNCCCCNCCCCNCCCCNCCO [SL-11141],efficacy in the rat alopecia and/or dermatitis model,[1]; 5 mM,showed efficacy
same,effectiveness at preventing alopecia after CTX treatment,"[1]; Example 6, 5 mM",less effective
same,Avg Alopecia Score,[1]; [13],3.3
CCNCCCCNCCCCNCCCCNCCCCNC/C=C/CNCCCCNCCCCNCCCCNCCCCNCC [SL-11144],activity in both the alopecia and dermatitis models,"[1]; 5 mM, versus naturally-occurring polyamines or simple polyamine analogs",overall greater activity
same,Avg Alopecia Scores,[3],3.0
same,Avg Alopecia Score,[4],0.0
NCCCCNCCCN [Spermidine],Avg Alopecia Score,[1]; [7],2.0
same,Avg Alopecia Score,[1]; [11],3.5
NCCCNCCCCNCCCN [Spermine],Avg Alopecia Score,[1]; [8],3.0
same,Avg Alopecia Score,[1]; [11],2.0
same,Avg Alopecia Score,"[1]; 100 mM topical once daily in ethanol/water, scale 0 (no hair loss) to 4 (100% hair loss), vehicle 4.0",0.0
same,Avg dermatitis score,[2]; [12],2.8
"NCCCNCCSP(=O)(O)O [amifostine, S-2-(3-aminopropylamino) ethylphoshorothioic acid, reference compound]",radioprotective activity,"[2]; radiation-induced dermatitis assay, as compared with putrescine",good radioprotective activity
